In PMC3961306, “Comparison of the Cancer Gene Targeting and Biochemical Selectivities of All Targeted Kinase Inhibitors Approved for Clinical Use” (PLoS ONE, 2014):

How the values were obtained:
Assay in all cases: Kinase profiling in a biochemical assay panel (mobility shift assays and ELISA), %-inhibition at 1 μM; selectivity entropy
[1] = target: panel of more than 300 wild-type and mutant kinases (313 kinase panel) (Homo sapiens, UniProt P05771)
[2] = target: panel of more than 300 wild-type and mutant kinases (313 kinase panel) (Homo sapiens, UniProt P10721, T670I)
Chain of panel of more than 300 wild-type and mutant kinases (313 kinase panel) (Homo sapiens, UniProt P10721, T670I) (P10721 26-976 T670I): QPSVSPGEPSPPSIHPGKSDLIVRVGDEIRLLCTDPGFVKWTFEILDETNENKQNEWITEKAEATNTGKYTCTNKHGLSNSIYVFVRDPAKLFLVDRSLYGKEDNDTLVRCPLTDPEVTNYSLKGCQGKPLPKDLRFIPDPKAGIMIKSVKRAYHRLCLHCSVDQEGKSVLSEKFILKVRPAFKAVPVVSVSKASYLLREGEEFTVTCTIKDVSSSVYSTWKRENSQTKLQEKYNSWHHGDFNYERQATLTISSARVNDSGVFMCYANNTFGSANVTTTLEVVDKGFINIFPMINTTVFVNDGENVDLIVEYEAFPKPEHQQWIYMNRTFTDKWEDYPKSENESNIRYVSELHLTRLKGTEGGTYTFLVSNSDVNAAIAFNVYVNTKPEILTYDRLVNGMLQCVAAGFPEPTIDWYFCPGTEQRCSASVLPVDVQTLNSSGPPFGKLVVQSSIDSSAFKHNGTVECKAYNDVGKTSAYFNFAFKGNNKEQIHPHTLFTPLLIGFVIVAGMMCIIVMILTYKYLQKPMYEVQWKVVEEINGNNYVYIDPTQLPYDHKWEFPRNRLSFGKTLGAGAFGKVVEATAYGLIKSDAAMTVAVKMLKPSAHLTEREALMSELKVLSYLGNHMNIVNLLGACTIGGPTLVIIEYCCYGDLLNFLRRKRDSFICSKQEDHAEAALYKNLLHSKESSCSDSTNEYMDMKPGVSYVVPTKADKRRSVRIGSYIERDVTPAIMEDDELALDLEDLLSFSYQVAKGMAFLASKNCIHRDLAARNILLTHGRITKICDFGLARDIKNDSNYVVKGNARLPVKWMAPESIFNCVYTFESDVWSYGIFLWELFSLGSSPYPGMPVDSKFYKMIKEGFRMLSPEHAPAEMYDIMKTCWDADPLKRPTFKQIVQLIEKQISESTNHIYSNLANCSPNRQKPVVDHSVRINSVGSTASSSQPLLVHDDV

[3] = target: panel of more than 300 wild-type and mutant kinases (313 kinase panel) (Homo sapiens, UniProt P27448)
Chain of panel of more than 300 wild-type and mutant kinases (313 kinase panel) (Homo sapiens, UniProt P27448) (P27448 whole entry, change not shown): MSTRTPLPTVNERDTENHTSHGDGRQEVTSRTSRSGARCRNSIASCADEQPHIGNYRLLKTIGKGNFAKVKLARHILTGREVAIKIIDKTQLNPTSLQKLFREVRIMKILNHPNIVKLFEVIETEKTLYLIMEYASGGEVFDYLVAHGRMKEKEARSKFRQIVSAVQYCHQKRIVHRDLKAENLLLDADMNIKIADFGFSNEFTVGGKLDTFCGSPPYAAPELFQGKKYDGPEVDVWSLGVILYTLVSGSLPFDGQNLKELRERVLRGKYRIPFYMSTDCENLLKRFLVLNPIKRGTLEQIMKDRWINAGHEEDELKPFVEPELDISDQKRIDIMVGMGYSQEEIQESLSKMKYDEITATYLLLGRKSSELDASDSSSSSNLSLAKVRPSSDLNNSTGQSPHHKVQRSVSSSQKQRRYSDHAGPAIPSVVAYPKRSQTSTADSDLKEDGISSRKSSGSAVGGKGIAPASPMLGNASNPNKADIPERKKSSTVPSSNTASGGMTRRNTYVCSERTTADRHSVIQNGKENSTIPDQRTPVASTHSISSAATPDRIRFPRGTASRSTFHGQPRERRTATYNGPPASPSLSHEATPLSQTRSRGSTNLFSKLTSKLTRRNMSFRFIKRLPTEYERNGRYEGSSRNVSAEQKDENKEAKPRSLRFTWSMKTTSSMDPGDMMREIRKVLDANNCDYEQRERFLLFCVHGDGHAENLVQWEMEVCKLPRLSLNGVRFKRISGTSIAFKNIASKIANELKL

[4] = target: panel of more than 300 wild-type and mutant kinases (313 kinase panel) (Homo sapiens, UniProt P30291)
Chain of panel of more than 300 wild-type and mutant kinases (313 kinase panel) (Homo sapiens, UniProt P30291) (P30291 whole entry, change not shown): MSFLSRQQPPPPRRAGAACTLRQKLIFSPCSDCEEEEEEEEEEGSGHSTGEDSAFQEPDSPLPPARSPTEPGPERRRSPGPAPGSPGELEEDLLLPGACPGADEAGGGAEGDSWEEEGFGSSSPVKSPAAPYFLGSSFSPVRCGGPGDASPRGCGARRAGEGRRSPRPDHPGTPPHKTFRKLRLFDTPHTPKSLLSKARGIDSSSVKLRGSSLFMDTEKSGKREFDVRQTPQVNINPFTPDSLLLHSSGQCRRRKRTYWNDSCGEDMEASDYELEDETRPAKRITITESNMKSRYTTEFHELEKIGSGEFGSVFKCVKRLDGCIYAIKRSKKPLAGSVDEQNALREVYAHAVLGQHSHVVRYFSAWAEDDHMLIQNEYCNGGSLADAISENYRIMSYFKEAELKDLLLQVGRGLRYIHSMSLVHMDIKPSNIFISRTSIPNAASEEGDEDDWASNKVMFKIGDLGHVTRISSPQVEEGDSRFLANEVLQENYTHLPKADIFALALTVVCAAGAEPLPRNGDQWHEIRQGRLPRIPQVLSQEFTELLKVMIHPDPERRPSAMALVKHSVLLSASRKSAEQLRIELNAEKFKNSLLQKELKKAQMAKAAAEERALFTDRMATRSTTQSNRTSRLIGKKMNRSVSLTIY

[5] = target: T1, panel of more than 300 wild-type and mutant kinases (313 kinase panel) (Homo sapiens, UniProt P41743)
T1 sequence (P41743 1-596): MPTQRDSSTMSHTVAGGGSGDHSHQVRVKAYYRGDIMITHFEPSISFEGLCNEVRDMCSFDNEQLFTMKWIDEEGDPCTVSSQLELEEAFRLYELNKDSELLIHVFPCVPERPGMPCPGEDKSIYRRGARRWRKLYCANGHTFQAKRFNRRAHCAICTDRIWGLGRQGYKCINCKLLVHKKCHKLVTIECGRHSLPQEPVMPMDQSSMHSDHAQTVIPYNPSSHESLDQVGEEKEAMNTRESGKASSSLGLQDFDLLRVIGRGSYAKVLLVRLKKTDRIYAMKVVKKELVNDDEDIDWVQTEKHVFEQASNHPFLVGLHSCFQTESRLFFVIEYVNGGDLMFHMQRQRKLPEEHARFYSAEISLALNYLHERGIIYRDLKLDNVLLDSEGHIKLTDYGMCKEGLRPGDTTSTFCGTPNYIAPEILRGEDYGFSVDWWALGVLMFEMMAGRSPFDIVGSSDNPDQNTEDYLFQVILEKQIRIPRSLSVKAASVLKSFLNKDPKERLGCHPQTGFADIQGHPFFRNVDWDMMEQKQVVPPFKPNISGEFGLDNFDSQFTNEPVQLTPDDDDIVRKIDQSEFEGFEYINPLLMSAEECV

[6] = target: panel of more than 300 wild-type and mutant kinases (313 kinase panel) (Homo sapiens, UniProt P42684)
[7] = target: panel of more than 300 wild-type and mutant kinases (313 kinase panel) (Homo sapiens, UniProt Q05655)
[8] = target: T2, panel of more than 300 wild-type and mutant kinases (313 kinase panel) (Homo sapiens, UniProt Q96L34)
T2 sequence (Q96L34 1-752): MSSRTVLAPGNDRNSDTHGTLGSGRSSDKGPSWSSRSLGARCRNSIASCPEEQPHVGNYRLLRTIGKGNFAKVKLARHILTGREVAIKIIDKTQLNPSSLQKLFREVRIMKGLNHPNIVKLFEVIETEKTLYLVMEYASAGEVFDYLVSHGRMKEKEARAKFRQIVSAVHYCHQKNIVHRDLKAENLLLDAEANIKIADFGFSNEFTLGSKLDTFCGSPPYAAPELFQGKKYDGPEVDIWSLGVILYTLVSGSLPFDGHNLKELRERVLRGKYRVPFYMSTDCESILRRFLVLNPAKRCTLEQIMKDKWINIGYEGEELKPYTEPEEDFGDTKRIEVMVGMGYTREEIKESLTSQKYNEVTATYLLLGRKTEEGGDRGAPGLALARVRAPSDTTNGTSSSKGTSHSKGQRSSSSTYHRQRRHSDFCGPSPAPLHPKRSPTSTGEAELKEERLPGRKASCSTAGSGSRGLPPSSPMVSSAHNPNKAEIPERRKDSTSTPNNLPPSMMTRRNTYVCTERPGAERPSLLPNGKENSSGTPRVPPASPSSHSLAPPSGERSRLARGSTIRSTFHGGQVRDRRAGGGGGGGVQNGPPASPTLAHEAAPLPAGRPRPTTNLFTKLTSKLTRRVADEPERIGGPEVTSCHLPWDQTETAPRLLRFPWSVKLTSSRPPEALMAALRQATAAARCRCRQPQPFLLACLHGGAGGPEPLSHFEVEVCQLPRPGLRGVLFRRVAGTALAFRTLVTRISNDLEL

[9] = target: panel of more than 300 wild-type and mutant kinases (313 kinase panel) (Homo sapiens, UniProt Q9NQU5)
[10] = target: panel of more than 300 wild-type and mutant kinases (313 kinase panel) (Homo sapiens, UniProt Q9Y5S2)
[11] = target: panel of more than 300 wild-type and mutant kinases (313 kinase panel) (Homo sapiens, UniProt Q9Y6E0)
[12] = target: panel of more than 300 wild-type and mutant kinases (313 kinase panel) (Homo sapiens, UniProt P29317)
[13] = kinase KIT(T670I), compound at 1 μM

| SMILES | %-inhibition of PKCβ1 ([1]; kinase PKCβ1, 1 μM) [%] | %-inhibition of KIT(T670I) [2, 13] [%] | %-inhibition of MARK3 ([3]; kinase MARK3, compound at 1 μM) [%] | %-inhibition of WEE1 ([4]; kinase WEE1, compound at 1 μM) [%] | %-inhibition of PKCι ([5]; kinase PKCι, 1 μM) [%] | %-inhibition, ARG ([6]; kinase ARG, 1 μM compound) [%] | %-inhibition of PKCδ ([7]; kinase PKCδ, 1 μM) [%] | %-inhibition of MARK4 ([8]; kinase MARK4, compound at 1 μM) [%] | %-inhibition of PAK6 ([9]; kinase PAK6, 1 μM) [%] | %-inhibition of MRCKβ ([10]; kinase MRCKβ, 1 μM) [%] | %-inhibition of MST3 ([11]; kinase MST3, 1 μM) [%] | %-inhibition of EPHA2 ([12]; kinase EPHA2, compound at 1 μM) [%] | also measured |
| --- | --- | --- | --- | --- | --- | --- | --- | --- | --- | --- | --- | --- | --- |
| C[C@@H](Oc1cc(-c2cnn(C3CCNCC3)c2)cnc1N)c1c(Cl)ccc(F)c1Cl [crizotinib] | -3 | 64 | 41 | 12 | -5 | 80 | -1.14 | 51 | 3 | -2 | 11 | – | – |
| CC(C)(C)c1nc(-c2cccc(NS(=O)(=O)c3c(F)cccc3F)c2F)c(-c2ccnc(N)n2)s1 [dabrafenib] | – | 1.7 | 4 | 0.651 | 14 | 54 | -6 | -27 | 9 | -2.85 | 0.532 | 7 | – |
| COc1cc2c(Nc3ccc(Br)cc3F)ncnc2cc1OCC1CCN(C)CC1 [vandetanib] | -6 | – | 4 | 1.73 | 6 | 94 | -5.39 | 2.39 | -5.42 | -16 | 7 | 86 | – |
| O=S(=O)(c1cccc2cnccc12)N1CCCNCC1 [fasudil] | 16 | 0.568 | 13 | -0.258 | 14 | -7 | 19 | -21 | 8 | – | -1.29 | -7 | – |
| C#Cc1cccc(Nc2ncnc3cc(OCCOC)c(OCCOC)cc23)c1 [erlotinib] | – | – | – | – | – | – | – | – | – | – | – | – | %-inhibition of PKCβ1 ([1]; 1 µM): 6%; %-inhibition of KIT(T670I) ([2]; 1 µM): 14%; %-inhibition of MARK3 ([3]; 1 µM): 9%; %-inhibition of EPHA2 ([12]; 1 µM): 18%; %-inhibition of WEE1 ([4]; 1 µM): 20%; %-inhibition of PKCι ([5]; 1 µM): 9%; %-inhibition of PKCδ ([7]; 1 µM): 5%; %-inhibition of MARK4 ([8]; 1 µM): 14%; %-inhibition of PAK6 ([9]; 1 µM): 5%; %-inhibition of MRCKβ ([10]; 1 µM): -4%; %-inhibition of MST3 ([11]; 1 µM): 3.69% |
| COc1cc2nccc(Oc3ccc(NC(=O)C4(C(=O)Nc5ccc(F)cc5)CC4)cc3)c2cc1OC [cabozantinib] | 1.48 | 100 | -3 | 5.45 | 15 | 29 | -0.835 | -9 | -4 | -3 | 0.432 | 98 | – |
| Cc1ccc(C(=O)Nc2ccc(CN3CCN(C)CC3)c(C(F)(F)F)c2)cc1C#Cc1cnc2cccnn12 [ponatinib] | -5.61 | – | – | 2.14 | 18 | 100 | 50 | -2.58 | -3 | 1.18 | – | 102 | – |
| CCCS(=O)(=O)Nc1ccc(F)c(C(=O)c2c[nH]c3ncc(-c4ccc(Cl)cc4)cc23)c1F [vemurafenib] | -3.81 | 5.29 | -0.226 | -1.64 | -16 | 7 | -5 | 3.78 | -7 | -5 | -1.73 | 0.715 | – |
| CCN(CC)CCNC(=O)c1c(C)[nH]c(/C=C2\C(=O)Nc3ccc(F)cc32)c1C [sunitinib] | – | – | – | – | – | – | – | 92 | – | – | – | – | – |
| Cc1cn(-c2cc(NC(=O)c3ccc(C)c(Nc4nccc(-c5cccnc5)n4)c3)cc(C(F)(F)F)c2)cn1 [nilotinib] | 3.41 | – | 11 | – | -8 | – | – | 12 | – | -10 | 0.797 | – | %-inhibition of KIT(T670I) ([2]; 1 µM): 18%; %-inhibition of EPHA2 ([12]; 1 µM): 95%; %-inhibition of WEE1 ([4]; 1 µM): 3.74%; %-inhibition, ARG ([6]; 1 µM): 95%; %-inhibition of PKCδ ([7]; 1 µM): -14%; %-inhibition of PAK6 ([9]; 1 µM): -102% |
| Cc1nc(Nc2ncc(C(=O)Nc3c(C)cccc3Cl)s2)cc(N2CCN(CCO)CC2)n1 [dasatinib] | – | – | – | – | – | – | – | – | – | – | 20 | – | – |
| N#CC[C@H](C1CCCC1)n1cc(-c2ncnc3[nH]ccc23)cn1 [ruxolitinib] | 1.35 | -0.512 | – | -1.32 | 1.52 | 6 | 2 | 53 | 3 | 20 | -1.15 | 28 | – |
| COc1cc(Nc2c(C#N)cnc3cc(OCCCN4CCN(C)CC4)c(OC)cc23)c(Cl)cc1Cl [bosutinib] | 3.68 | 7 | – | 98 | 5 | – | 63 | – | -0.35 | 66 | – | – | – |
